The numbers were not newly measured in US20040235767A1, “Anti-angiogenic and immunotherapeutic compositions for cancer treatment” (priority 2004, published 2004), which cites them from elsewhere.

The data set concerns large tumours. Particulars: previously reported.

With `Cc1ccc2c(=O)c3cccc(CC(=O)O)c3oc2c1C` [DMXAA, 5,6-dimethylxanthenone-4-acetic acid], the “effect on large tumours in combination with B7-1-mediated immunotherapy” value was “eradication of large tumours”.
